The results in this text go back to US20240024261A1, “PHARMACEUTICAL COMPOSITION FOR IMPROVING COGNITIVE ABILITY OR ENHANCING MEMORY” (DR. RAYMOND LAB INC, priority 2020, published 2024).

“And” between values parts separate entries of the source, which are not always exact repeats. Identical values can stand only once. A value given as a limit tells only on which side of the number the result lay.

One assay deals with sphingoid base. In words: Sphingoid base content in brain tissue (forebrain). More on the design: Sphingoid base content, Sphingosine (SPN) / Sphingoid base content, S1P / Sphingoid base content, Sphinganine (Sa) / Sphingoid base content, Sa1P: unit not given here. The format is in vivo, mouse. The following applies: for Sphingoid base content, S1P / Sphingoid base content, Sa1P / Sphingoid base content, Sphinganine (Sa) / Sphingoid base content, Sphingosine (SPN): Neuromide 100 mg/kg oral, scopolamine. As to the method:
Two types of forebrain parts of the experimental groups G1, G2, and G5 in the separated brain tissue were secured, respectively, the contents of sphingoid base were analyzed, and the average and the deviation were calculated.
At this time, the measurement of contents of sphingosine (SPN), sphinganine (Sa), sphingosine-1-phosphate (S1P), and sphinganine-1-phosphate (Sa1P) which are sphingoid bases was performed by confirmation and quantitative method of sphingoid bases commonly known to a person skilled in the art.

The test system of another assay is IL-1β. Nature of the assay: Inflammatory cytokine IL-1β in hippocampus (ELISA). The assay is classed as in vivo, mouse. The following applies: scopolamine, mean ± standard error. As to the method: On the next day of the end of the passive avoidance test, the test material was administered, and the objects were allowed to stand in a home cage for 30 minutes. Subsequently, Scopolamine was intraperitoneally administered at a dose of 1 mg/kg, and then the objects were allowed to stand in a home cage for 30 minutes.
A brain tissue was separately separated and stored at −70° C. until analysis.
Inflammatory cytokine in a brain tissue was measured with a supernatant liquid obtained by adding a tissue protein extraction reagent (Biovision, CA, USA) to a brain tissue, crushing it, and centrifuging it, using an ELISA Kit (R&D System, MN, USA).
(In an ELISA, binding on a coated surface is turned into a signal by an enzyme label.)

[1] abbreviates: Average of two forebrain samples.
[2] abbreviates: individual forebrain samples 5-2, 5-3, listed as Example 3.

As for `CCCCCCCCCCCCCCCC(=O)NC(CO)CO` [Neuromide, N-palmitoyl serinol], in the assay with sphingoid base (setting [1]), the “Sphingoid base content, S1P” value came out at 183.74; the “Sphingoid base content, Sa1P” value was 69.57; the “Sphingoid base content, Sphinganine (Sa)” value stood at 545.74; the “Sphingoid base content, Sphingosine (SPN)” value was 2010.00. In addition, in the assay with sphingoid base (forebrain, Neuromide 100 mg/kg), the “S1P increase as compared with the normal control group” value is at least 20%. Also, in the assay with sphingoid base (setting [2]), the “Sphingoid base content, S1P” value is 159.43 and 208.05; the “Sphingoid base content, Sa1P” value is 69.16 and 69.98; the “Sphingoid base content, Sphinganine (Sa)” value is 506.47 and 585.01; the “Sphingoid base content, Sphingosine (SPN)” value was 1861.23 and 2158.78. Besides, the IL-1β with IL-1β (Neuromide 16 mg/kg oral) was 194.7 pg/mg tissue protein and 194.7 ± 30.6 pg/mg tissue protein. Also, the IL-1β with IL-1β (Neuromide 40 mg/kg oral) is 188.6 pg/mg tissue protein and 188.6 ± 32.4 pg/mg tissue protein. The IL-1β with IL-1β (Neuromide 100 mg/kg oral) is 151.5 pg/mg tissue protein and 151.5 ± 24.9 pg/mg tissue protein.
